Data set [1] deals with Escherichia coli. As to the kind of experiment: (§1) Binding affinity to Escherichia coli PPAT by SPR method. A general note: Surface plasmon resonance follows binding to a sensor surface in real time, without labels.
Data set [2] in a line: as §1.
A short description of data set [3]: Inhibition of Staphylococcus aureus C-terminal His-tagged PPAT expressed in Escherichia coli using 4'-phosphopantetheine as substrate preincubated for 5 mins followed by substrate and pyrophosphatase addition measured after 30 mins by malachite green reagent-based colorimetric method.
The subject of data set [4] is Escherichia coli. As to the kind of experiment: Antibacterial activity against tolC deficient Escherichia coli BW25113 after 20 hrs by broth microdilution method. The data set is classed as functional. The conditions noted are these: BW25113, 20 h. In general terms: Broth dilution looks for growth in wells or tubes with falling amounts of substance.
In data set [5] the target is T1, Bifunctional coenzyme A synthase (Homo sapiens) (UniProt Q13057).
T1 sequence (whole entry): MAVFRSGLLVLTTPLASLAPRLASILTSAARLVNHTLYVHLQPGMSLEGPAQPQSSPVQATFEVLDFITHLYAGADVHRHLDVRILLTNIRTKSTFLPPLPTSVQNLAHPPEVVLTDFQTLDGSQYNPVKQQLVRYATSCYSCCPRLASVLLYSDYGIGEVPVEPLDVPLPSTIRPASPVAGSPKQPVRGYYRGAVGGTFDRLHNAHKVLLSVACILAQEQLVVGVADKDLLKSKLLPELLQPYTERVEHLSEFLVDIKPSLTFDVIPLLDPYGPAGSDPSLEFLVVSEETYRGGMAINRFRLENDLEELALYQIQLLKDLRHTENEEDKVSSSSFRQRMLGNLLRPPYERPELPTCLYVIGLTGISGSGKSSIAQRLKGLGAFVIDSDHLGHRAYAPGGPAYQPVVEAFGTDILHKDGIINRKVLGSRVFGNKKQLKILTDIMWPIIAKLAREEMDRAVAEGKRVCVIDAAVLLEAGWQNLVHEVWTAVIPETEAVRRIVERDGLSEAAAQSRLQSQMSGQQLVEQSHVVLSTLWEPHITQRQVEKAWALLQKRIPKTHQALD
As to the kind of experiment: Inhibition of human PPAT up to 500 uM.

The nature of data set [6]: Inhibition of Escherichia coli C-terminal His-tagged PPAT expressed in Escherichia coli using 4'-phosphopantetheine as substrate preincubated for 5 mins followed by substrate and pyrophosphatase addition measured after 30 mins by malachite green reagent-based colorimetric method.
Data set [7] deals with Escherichia coli. As to the kind of experiment: Antibacterial activity against Escherichia coli ATCC 25922 after 20 hrs by broth microdilution method. The class given is functional.
A short description of data set [8]: Dissociation rate constant to Escherichia coli PPAT by SPR method.
A short description of data set [9]: Lipophilicity, log D of the compound at pH 7.4. The conditions noted are these: buffer. The class given is physicochemical.
Data set [10] in a line: Inhibition of Pseudomonas aeruginosa C-terminal His-tagged PPAT expressed in Escherichia coli using 4'-phosphopantetheine as substrate preincubated for 5 mins followed by substrate and pyrophosphatase addition measured after 30 mins by malachite green reagent-based colorimetric method.
A short description of data set [11]: Solubility of the compound. The class given is physicochemical.
Data set [12] relates to Escherichia coli. As to the kind of experiment: Inhibition of Escherichia coli C-terminal His-tagged PPAT expressed in Escherichia coli up to 500 uM using 4'-phosphopantetheine as substrate preincubated for 5 mins followed by substrate and pyrophosphatase addition measured after 30 mins by malachite green reagent-based colorimetric method.
In data set [13] the test system is Escherichia coli. Nature of the data set: Selectivity ratio of IC50 for Escherichia coli C-terminal His-tagged PPAT M74L mutant to IC50 for Escherichia coli C-terminal His-tagged PPAT.
Data set [14] relates to Escherichia coli. As to the kind of experiment: Inhibition of Escherichia coli C-terminal His-tagged PPAT H138L mutant using 4'-phosphopantetheine as substrate preincubated for 20 mins followed by substrate and pyrophosphatase addition by malachite green reagent-based assay.
In data set [15] the test system is Escherichia coli. Nature of the data set: Inhibition of Escherichia coli C-terminal His-tagged PPAT V135I mutant using 4'-phosphopantetheine as substrate preincubated for 20 mins followed by substrate and pyrophosphatase addition by malachite green reagent-based assay.
Data set [16] addresses T2, Bifunctional coenzyme A synthase (Homo sapiens, UniProt Q13057).
T2 sequence (Q13057 whole entry): T1 sequence (whole entry)
Nature of the data set: Inhibition of human PPAT.

Data set [17] in a line: Selectivity ratio of IC50 for human PPAT to IC50 for Escherichia coli C-terminal His-tagged PPAT.
Data set [18] in a line: Inhibition of Escherichia coli C-terminal His-tagged PPAT expressed in Escherichia coli using 10 times 4'-phosphopantetheine as substrate preincubated for 5 mins followed by substrate and pyrophosphatase addition measured after 30 mins by malachite green reagent-based colorimetric method.
Data set [19] relates to Escherichia coli. Nature of the data set: Ratio of IC50 for Escherichia coli C-terminal His-tagged PPAT expressed in Escherichia coli using 10 times 4'-phosphopantetheine as substrate to IC50 for Escherichia coli C-terminal His-tagged PPAT expressed in Escherichia coli using 4'-phosphopantetheine as substrate.

From ChEMBL document CHEMBL4043289, “Fragment-Based Drug Discovery of Inhibitors of Phosphopantetheine Adenylyltransferase from Gram-Negative Bacteria” (J Med Chem, 2018) come the findings set out here.

pIC50, pKd: −log10 of the molar value. Values after ≈ are worked out from the molar mass of the structure shown. Active and inactive are the calls of the source. No cut-off for these calls is given here. Some results are limits rather than exact numbers.

The pKd is the negative decadic logarithm of the Kd, by convention in mol/L. As a reminder, the pIC50 is −log10 of the IC50, conventionally taken in molar units. As a reminder, the MIC is the lowest concentration that inhibits growth of the organism. A lower MIC goes with greater potency. The term koff denotes a measure of how fast the partners let go of each other. Read a low koff as a long-lived complex. What is called logD is lipophilicity at a set pH, counting ionised and neutral species. High values mean higher lipophilicity, low ones lower lipophilicity. As a reminder, the solubility is the concentration that dissolves in the medium under given conditions. In the data set with Escherichia coli [1], `Cc1cc(=O)n2nc(N[C@H](CC#N)c3cccc(Cl)c3)nc2[nH]1` gave a Ka of 23 ×10⁵ /M/s. Moreover, the pKd in [2] was 8.05. The values for the pIC50 in [3], in data set [6] and in data set [10] were < 3.30, 7.43 and 7.31, respectively. Further, the lowest concentration to inhibit growth against Escherichia coli [4] (MIC) was 16 µg/mL (≈ 48.7 µM). The inhibition result in [5] is “inactive”. Moreover, in the data set with Escherichia coli [7], the result was inactive. Further, the off-rate (koff) in [8] is 0.021 s⁻¹. Also, in data set [9], the logD was found to be 1.2. The solubility in [11] is > 300 µg/mL.

In the case of `CCCCCNC(=O)CCNC(=O)[C@H](O)C(C)(C)CO`, the inhibition result in the data set on Escherichia coli [12] was “inactive”. Besides, the MIC was 16 µg/mL (≈ 55.5 µM) with Escherichia coli [4] and 64 µg/mL (≈ 222 µM) in the data set on Escherichia coli [7] (ATCC 25922, 20 h).

Turning to `CC(C)CNC(=O)[C@@H](Cc1cnc[nH]1)NC(=O)[C@H](CCC(=O)O)NC(=O)OC1c2ccccc2-c2ccccc21`, the Ratio IC50 in the data set with Escherichia coli [13] worked out at 25. For the same compound, the inhibition result in the data set on Escherichia coli [14] and with Escherichia coli [15] was “Active” throughout.

With `C[C@@H](Nc1nc2c(O)cccc2[nH]1)c1cccc(Cl)c1`, the figures for the pIC50 in data set [16], in data set [6] and in data set [10] were 4.96, 5.92 and 4.82, respectively. The Ratio IC50 in [17] was 9.

On to `Cc1cc(=O)n2nc(N[C@H](C)c3cccc(Cl)c3)nc2[nH]1`, for which the Ka in the data set on Escherichia coli [1] was 0.16 ×10⁵ /M/s. Moreover, the negative logarithm of the Kd (pKd) in data set [2] is 6.77. Also, the pIC50 in data set [18] is 6.04; in [6], 6.60; in [10], 6.01. The Ratio IC50 in the data set on Escherichia coli [19] amounted to 3.7. The same compound returned a koff in data set [8] of 0.0028 s⁻¹. Moreover, in data set [9], the logD was 1.1. In addition, the concentration in solution in data set [11] (solubility) came to 68 µg/mL (≈ 224 µM).
